In test [1] the target is T1, Muscarinic acetylcholine receptor M4 (Homo sapiens, UniProt P08173).
T1 sequence (P08173 whole entry): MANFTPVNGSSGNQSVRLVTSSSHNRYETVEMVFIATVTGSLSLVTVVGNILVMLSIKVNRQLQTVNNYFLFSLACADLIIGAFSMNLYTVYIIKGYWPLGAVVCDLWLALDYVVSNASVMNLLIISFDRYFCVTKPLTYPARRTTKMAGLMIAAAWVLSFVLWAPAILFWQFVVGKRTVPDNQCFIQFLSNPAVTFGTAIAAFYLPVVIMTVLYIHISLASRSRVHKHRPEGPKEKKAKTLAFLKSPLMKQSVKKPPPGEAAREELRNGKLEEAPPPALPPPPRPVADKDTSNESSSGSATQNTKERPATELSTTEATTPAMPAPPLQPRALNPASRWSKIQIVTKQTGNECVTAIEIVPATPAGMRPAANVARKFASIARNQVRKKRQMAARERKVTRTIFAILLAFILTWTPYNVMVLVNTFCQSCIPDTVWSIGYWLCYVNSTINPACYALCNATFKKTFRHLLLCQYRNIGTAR

A further test has as its target D(1A) dopamine receptor (Homo sapiens, UniProt P21728).
The target in a further test is Cannabinoid receptor 1 (Homo sapiens, UniProt P21554). Format: functional.
A further test deals with Substance-P receptor (Homo sapiens, UniProt P25103).
Test [2] deals with 5-hydroxytryptamine receptor 6 (Homo sapiens, UniProt P50406).
For test [3], the target named is T2, Muscarinic acetylcholine receptor M1 (Homo sapiens, UniProt P11229).
T2 sequence (P11229 whole entry): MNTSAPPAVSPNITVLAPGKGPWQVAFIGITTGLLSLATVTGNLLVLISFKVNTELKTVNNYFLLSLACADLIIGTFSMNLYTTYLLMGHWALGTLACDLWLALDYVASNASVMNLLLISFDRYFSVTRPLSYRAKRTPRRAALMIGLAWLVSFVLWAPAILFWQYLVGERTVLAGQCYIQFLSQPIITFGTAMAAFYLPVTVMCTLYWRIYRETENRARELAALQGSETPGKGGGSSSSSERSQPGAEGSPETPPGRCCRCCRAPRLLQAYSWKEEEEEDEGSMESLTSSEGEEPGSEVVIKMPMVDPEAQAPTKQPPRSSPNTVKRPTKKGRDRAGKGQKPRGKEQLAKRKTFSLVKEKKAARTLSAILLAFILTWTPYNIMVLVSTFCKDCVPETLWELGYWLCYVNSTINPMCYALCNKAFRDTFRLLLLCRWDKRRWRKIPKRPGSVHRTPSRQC

The target in test [4] is 5-hydroxytryptamine receptor 7 (Homo sapiens, UniProt P34969).
Test [5] has as its target T3, Peroxisome proliferator-activated receptor gamma (Homo sapiens, UniProt P37231).
T3 sequence (P37231 whole entry): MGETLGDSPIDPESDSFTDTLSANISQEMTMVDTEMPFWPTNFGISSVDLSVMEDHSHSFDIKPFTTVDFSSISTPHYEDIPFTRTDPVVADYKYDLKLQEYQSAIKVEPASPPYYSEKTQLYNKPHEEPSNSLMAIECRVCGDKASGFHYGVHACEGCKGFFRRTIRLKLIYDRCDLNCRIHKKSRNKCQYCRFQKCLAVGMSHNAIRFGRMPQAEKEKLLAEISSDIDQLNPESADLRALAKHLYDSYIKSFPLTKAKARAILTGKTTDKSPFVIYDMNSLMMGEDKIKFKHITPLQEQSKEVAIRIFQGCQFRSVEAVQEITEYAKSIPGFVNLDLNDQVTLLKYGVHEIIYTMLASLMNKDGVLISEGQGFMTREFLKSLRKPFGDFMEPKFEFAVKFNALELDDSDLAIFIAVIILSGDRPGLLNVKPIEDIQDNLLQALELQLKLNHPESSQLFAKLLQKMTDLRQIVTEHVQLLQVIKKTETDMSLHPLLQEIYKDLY
It is filed as functional.

In test [6] the target is Beta-1 adrenergic receptor (Homo sapiens, UniProt P08588). Format: functional, cell-based.
Test [7] has as its target T4, Corticotropin-releasing factor receptor 2 (Homo sapiens, UniProt Q13324).
T4 sequence (Q13324 whole entry): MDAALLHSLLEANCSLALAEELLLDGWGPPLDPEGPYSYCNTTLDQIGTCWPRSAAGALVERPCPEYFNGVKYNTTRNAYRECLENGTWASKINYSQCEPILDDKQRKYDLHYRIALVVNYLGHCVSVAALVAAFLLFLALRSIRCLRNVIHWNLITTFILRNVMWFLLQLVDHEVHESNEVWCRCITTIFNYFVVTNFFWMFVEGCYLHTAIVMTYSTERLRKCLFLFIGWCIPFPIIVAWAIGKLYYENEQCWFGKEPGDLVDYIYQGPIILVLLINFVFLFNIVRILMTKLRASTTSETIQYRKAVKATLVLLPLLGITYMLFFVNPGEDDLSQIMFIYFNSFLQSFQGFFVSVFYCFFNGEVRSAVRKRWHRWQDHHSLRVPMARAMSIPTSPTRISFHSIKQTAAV

For test [8], the target named is T5, Corticotropin-releasing factor receptor 1 (Homo sapiens, UniProt P34998).
T5 sequence (P34998 whole entry): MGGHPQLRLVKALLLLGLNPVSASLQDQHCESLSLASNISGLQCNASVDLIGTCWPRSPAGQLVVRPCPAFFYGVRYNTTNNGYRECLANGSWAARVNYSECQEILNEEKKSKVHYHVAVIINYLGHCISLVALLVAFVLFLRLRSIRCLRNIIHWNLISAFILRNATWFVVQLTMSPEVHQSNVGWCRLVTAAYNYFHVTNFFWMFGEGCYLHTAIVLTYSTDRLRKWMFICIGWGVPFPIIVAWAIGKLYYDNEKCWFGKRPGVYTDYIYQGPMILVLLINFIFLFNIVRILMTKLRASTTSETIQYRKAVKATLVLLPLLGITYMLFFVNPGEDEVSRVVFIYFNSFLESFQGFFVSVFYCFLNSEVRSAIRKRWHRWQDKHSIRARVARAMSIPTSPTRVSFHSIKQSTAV

The target in test [9] is Gamma-aminobutyric acid receptor subunit alpha-1/alpha-2/beta-2/gamma-2 (Homo sapiens, UniProt P14867+P18507+P47869+P47870). Format: functional, cell-based.
The next test addresses Histamine H1 receptor (Homo sapiens, UniProt P35367). Format: functional, cell-based.

Our source for the AC50 values is ChEMBL document CHEMBL5291721, “A preclinical secondary pharmacology resource illuminates target-adverse drug reaction associations of marketed drugs” (Nat Commun, 2023).
Also: assay procedure not described here.

Substance-P receptor, sequence (P25103 whole entry): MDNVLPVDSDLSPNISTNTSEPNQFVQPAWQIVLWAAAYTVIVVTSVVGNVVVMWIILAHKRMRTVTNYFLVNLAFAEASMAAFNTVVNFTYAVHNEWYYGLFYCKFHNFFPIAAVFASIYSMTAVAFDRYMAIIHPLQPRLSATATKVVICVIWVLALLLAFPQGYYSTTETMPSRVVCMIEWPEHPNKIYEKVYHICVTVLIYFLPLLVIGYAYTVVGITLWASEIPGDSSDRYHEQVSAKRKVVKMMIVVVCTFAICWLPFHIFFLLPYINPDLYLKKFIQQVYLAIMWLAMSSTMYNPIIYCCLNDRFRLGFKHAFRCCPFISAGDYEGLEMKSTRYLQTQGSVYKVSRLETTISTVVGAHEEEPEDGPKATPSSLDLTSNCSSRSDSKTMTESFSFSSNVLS
5-hydroxytryptamine receptor 6, sequence (P50406 whole entry): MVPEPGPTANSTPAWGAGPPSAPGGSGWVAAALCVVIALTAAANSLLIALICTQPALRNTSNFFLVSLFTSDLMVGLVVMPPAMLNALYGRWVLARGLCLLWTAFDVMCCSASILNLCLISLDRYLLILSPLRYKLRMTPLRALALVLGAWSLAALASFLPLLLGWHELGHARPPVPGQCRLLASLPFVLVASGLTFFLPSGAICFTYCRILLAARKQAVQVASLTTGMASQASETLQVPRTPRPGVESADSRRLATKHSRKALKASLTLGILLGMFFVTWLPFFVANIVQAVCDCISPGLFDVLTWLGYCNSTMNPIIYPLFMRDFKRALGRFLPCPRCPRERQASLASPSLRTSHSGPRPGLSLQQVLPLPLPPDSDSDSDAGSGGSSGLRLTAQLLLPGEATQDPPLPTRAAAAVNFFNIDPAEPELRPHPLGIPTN
Cannabinoid receptor 1, sequence (P21554 whole entry): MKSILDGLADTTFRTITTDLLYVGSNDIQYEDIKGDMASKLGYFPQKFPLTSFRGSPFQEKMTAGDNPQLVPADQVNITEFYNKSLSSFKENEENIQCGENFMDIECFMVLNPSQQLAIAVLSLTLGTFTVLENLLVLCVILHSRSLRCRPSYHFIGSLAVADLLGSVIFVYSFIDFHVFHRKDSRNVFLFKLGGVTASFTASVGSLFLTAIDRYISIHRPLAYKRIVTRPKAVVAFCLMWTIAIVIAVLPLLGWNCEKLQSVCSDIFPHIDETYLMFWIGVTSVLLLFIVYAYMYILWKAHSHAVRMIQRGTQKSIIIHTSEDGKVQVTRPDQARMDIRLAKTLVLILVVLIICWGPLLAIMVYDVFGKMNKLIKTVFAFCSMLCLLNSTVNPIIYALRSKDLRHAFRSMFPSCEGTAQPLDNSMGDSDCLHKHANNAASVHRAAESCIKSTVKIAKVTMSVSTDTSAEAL
D(1A) dopamine receptor, sequence (P21728 whole entry): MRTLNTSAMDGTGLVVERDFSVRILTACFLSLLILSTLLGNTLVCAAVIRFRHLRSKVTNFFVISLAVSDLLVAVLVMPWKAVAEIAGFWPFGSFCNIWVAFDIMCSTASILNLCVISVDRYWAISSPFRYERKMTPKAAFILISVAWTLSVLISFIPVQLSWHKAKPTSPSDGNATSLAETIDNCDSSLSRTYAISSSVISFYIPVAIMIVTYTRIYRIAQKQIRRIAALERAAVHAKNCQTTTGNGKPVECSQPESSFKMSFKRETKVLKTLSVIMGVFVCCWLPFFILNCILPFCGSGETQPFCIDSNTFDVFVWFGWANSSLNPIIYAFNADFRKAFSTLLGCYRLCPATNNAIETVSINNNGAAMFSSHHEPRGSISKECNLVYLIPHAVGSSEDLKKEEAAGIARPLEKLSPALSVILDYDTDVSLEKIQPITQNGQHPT
Beta-1 adrenergic receptor, sequence (P08588 whole entry): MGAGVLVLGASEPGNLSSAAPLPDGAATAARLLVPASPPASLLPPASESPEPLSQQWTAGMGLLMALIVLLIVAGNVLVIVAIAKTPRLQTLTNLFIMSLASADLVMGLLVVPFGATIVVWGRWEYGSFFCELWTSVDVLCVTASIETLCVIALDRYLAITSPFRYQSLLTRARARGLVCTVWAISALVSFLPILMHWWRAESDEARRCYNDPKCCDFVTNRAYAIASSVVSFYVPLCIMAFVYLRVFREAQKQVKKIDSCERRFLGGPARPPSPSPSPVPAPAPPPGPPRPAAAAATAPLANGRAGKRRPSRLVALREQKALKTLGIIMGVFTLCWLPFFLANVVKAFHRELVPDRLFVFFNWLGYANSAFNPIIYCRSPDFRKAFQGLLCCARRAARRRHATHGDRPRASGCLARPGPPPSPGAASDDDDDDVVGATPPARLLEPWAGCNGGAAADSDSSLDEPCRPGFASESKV
5-hydroxytryptamine receptor 7, sequence (P34969 whole entry): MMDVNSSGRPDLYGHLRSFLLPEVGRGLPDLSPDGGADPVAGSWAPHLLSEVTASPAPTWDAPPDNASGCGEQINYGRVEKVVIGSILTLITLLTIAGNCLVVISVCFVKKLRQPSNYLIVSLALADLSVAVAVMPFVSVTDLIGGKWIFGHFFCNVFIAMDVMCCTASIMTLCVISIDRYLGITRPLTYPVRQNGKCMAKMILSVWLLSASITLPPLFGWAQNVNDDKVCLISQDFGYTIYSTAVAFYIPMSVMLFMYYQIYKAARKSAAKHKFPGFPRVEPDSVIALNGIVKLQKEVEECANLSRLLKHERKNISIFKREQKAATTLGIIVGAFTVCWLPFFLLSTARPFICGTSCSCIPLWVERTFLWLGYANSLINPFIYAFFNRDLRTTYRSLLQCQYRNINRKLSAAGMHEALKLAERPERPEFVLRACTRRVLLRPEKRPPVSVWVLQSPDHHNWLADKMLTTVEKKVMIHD
Gamma-aminobutyric acid receptor subunit alpha-1/alpha-2/beta-2/gamma-2, sequence (P14867 whole entry): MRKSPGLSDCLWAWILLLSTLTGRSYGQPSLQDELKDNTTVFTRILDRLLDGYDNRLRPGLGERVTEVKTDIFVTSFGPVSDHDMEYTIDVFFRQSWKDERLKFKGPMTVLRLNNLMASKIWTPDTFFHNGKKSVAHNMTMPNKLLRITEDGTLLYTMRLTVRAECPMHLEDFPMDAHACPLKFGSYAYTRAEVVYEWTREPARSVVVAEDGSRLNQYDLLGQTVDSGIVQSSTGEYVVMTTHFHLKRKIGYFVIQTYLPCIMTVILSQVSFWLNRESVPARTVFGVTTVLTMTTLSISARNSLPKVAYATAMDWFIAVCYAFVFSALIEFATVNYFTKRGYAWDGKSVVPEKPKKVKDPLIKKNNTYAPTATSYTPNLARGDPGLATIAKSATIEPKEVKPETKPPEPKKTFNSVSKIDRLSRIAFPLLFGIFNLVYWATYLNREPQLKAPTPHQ
Gamma-aminobutyric acid receptor subunit alpha-1/alpha-2/beta-2/gamma-2, sequence (P47870 whole entry): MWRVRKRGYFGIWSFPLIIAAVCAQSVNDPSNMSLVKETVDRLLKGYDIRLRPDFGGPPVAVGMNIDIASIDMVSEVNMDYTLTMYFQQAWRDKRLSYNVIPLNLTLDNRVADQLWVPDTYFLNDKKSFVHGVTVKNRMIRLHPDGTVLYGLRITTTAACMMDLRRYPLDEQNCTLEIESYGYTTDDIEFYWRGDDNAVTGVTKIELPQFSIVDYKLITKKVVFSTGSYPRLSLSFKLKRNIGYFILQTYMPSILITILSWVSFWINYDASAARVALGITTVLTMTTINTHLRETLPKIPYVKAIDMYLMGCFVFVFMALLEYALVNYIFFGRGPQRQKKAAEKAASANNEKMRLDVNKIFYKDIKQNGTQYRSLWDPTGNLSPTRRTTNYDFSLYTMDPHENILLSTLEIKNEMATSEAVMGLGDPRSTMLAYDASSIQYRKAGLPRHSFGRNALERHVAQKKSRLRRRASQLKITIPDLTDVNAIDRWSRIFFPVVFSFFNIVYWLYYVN
Gamma-aminobutyric acid receptor subunit alpha-1/alpha-2/beta-2/gamma-2, sequence (P18507 whole entry): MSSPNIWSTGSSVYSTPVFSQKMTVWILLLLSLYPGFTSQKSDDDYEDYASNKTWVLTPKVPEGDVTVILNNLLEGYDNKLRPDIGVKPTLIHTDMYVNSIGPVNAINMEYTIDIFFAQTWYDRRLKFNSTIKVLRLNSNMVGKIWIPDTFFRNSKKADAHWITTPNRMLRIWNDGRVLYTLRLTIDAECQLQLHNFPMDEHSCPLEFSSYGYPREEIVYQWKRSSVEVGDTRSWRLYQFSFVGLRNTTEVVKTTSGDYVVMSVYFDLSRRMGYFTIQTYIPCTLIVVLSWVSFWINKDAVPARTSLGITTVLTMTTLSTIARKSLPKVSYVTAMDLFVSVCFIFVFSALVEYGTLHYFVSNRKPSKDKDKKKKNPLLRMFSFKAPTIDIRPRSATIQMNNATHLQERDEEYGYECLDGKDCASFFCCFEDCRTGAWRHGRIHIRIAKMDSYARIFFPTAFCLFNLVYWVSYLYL
Gamma-aminobutyric acid receptor subunit alpha-1/alpha-2/beta-2/gamma-2, sequence (P47869 whole entry): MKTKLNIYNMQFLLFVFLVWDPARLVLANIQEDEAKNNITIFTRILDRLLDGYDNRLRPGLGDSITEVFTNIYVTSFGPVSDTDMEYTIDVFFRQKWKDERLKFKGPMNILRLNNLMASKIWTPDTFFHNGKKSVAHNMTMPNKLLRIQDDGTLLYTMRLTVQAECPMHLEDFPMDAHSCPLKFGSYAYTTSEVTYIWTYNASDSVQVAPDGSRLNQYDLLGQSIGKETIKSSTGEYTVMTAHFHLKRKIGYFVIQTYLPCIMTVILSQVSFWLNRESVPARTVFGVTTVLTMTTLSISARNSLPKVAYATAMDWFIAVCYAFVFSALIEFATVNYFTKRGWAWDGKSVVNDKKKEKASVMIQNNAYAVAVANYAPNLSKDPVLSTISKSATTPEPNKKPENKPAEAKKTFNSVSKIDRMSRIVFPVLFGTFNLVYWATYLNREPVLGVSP

The AC50 is the midpoint of the concentration-response curve, whichever way the signal moves. On to `O=C(/C=C/c1cccc(S(=O)(=O)Nc2ccccc2)c1)NO` [BELINOSTAT], for which the AC50 in test [1] was above 10 µM; on D(1A) dopamine receptor, above 30 µM; at Cannabinoid receptor 1, above 10 µM; on Substance-P receptor it was above 10 µM; in test [2], 2.47 µM; in test [3] it was above 30 µM. In test [4], the AC50 is above 10 µM.

The compound `CC(C)c1cccc(C(C)C)c1O` [PROPOFOL] displayed an AC50 in test [5] above 30 µM.

`CC(C)(Oc1ccc(CCNC(=O)c2ccc(Cl)cc2)cc1)C(=O)O` [BEZAFIBRATE] gave an AC50 in test [5] above 30 µM.

`COC(=O)C1=C(C)NC(C)=C(C(=O)OCCN2CCN(C(c3ccccc3)c3ccccc3)CC2)C1c1cccc([N+](=O)[O-])c1` (centres undefined) [MANIDIPINE 6300] returned a half-maximal activity concentration (AC50) in test [6] above 30 µM.

In test [6], `CCCN1CC(NS(=O)(=O)N(CC)CC)CC2Cc3c(O)cccc3CC21` (centres undefined) [QUINAGOLIDE] came in with an AC50 above 30 µM.

Take `CN(Cc1cnc2nc(N)nc(N)c2n1)c1ccc(C(=O)N[C@@H](CCC(=O)O)C(=O)O)cc1` [METHOTREXATE]: the AC50 in test [7] and in [8] was above 30 µM throughout.

Consider `OC[C@H]1O[C@@H](n2cnc3c2NC=NC[C@H]3O)C[C@@H]1O` [PENTOSTATIN], for which the AC50 (in [9]; on Histamine H1 receptor; in test [5]) was above 30 µM in each case.

With `COc1ccc2c(C(=S)N(C)CC(=O)O)cccc2c1C(F)(F)F` [TOLRESTAT], the AC50 (at D(1A) dopamine receptor; in test [3]) was above 30 µM each time.

Turning to `O=S1(=O)CCN(CN2CCS(=O)(=O)NC2)CN1` [TAUROLIDINE], the concentration at half-maximal activity (AC50) (at D(1A) dopamine receptor; in test [9]; at Histamine H1 receptor; in test [3]) was above 30 µM in each case.

`C[C@@H]1C[C@H]2[C@@H]3C[C@H](F)C4=CC(=O)C=C[C@]4(C)[C@@]3(F)[C@@H](O)C[C@]2(C)[C@@]1(OC(=O)c1ccco1)C(=O)SCF` [FLUTICASONE FUROATE]: the AC50 (in test [1]; on Cannabinoid receptor 1; in [2]; in [4]) was above 10 µM in each case.

`C[N+](C)(C)CCOP(=O)([O-])OC[C@H](O)CO` registered an AC50 in [6] above 30 µM.

Consider `CN(C)CCCN1c2ccccc2CCc2ccccc21` [IMIPRAMINE], for which the AC50 in test [1] is 1.07 µM; on Cannabinoid receptor 1 it was above 10 µM; in test [7], above 30 µM; in test [8], above 30 µM; at Substance-P receptor, above 10 µM; in test [2] it was 0.313 µM. The same compound displayed an AC50 in test [4] above 10 µM.

Take `CN[C@@H](C)[C@@H](O)c1ccccc1` [PSEUDOEPHEDRINE]: the concentration at half-maximal activity (AC50) in test [7] was above 30 µM; in [8], above 30 µM; on Substance-P receptor, above 10 µM.

Compound `NC[C@H]1CC[C@H](C(=O)Oc2ccc(CCC(=O)O)cc2)CC1` [CETRAXATE] returned an AC50 on D(1A) dopamine receptor above 30 µM.

For the compound `O=C(O)COCCN1CCN(C(c2ccccc2)c2ccc(Cl)cc2)CC1` (centres undefined) [CETIRIZINE], the figures for the AC50 (in [7]; in test [8]; on Substance-P receptor) were above 30 µM, above 30 µM and above 10 µM, respectively.

On to `O=C1OC(OC(=O)c2cccnc2Nc2cccc(C(F)(F)F)c2)c2ccccc21` (centres undefined) [TALNIFLUMATE], for which the AC50 (in [9]; at Histamine H1 receptor) was above 30 µM throughout.

Take `CN(C)C/C=C/C(=O)Nc1cc2c(Nc3ccc(F)c(Cl)c3)ncnc2cc1O[C@H]1CCOC1` [AFATINIB]: the AC50 (in test [9]; on Histamine H1 receptor; in [5]) was above 30 µM throughout.

As to `CC(O)(CS(=O)(=O)c1ccc(F)cc1)C(=O)Nc1ccc(C#N)c(C(F)(F)F)c1` (centres undefined) [BICALUTAMIDE], the AC50 at Cannabinoid receptor 1 was above 10 µM; in [7] it was above 30 µM; in test [8] it was above 30 µM; at Substance-P receptor, above 10 µM; in test [2] it was above 10 µM; in test [4] it was above 10 µM.

Consider `CNCCc1ccc(OC(=O)C(C)C)c(OC(=O)C(C)C)c1` [IBOPAMINE], for which the AC50 in test [6] and in test [9] was above 30 µM throughout.
